#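 96-well plates; 48 h exposure; 5 concentrations. Endpoints by linear interpolation between flanking doses. Not reached: highest tested concentration assigned. GI50 is the concentration that inhibits growth by half.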 Calls of active or inactive are those of the source. No stated cut-off is given here; in the data, active = GI50 up to about 1.1 µM and inactive = higher.
# Legend:
# Assay in all cases: growth of human tumour cells (NCI), 48 h
# OVCAR-5 = system: OVCAR-5
# UACC-62 = system: UACC-62
# NCI-H522 = system: NCI-H522
# LOX IMVI = system: LOX IMVI
# M14 = system: M14
# A549 = system: A549
# RPMI-8226 = system: RPMI-8226
# RXF 393 = system: RXF 393
# HOP-92 = system: HOP-92
# NCI-H460 = system: NCI-H460
# T47D = system: T47D
# UO-31 = system: UO-31
# 786-0 = system: 786-0
# OVCAR-4 = system: OVCAR-4
# Hs-578T = system: Hs-578T
# SF-295 = system: SF-295
# NCI-H226 = system: NCI-H226
# SNB-19 = system: SNB-19
# DU-145 = system: DU-145
# OVCAR-8 = system: OVCAR-8
# BT-549 = system: BT-549
# Malme-3M = system: Malme-3M
# SN12C = system: SN12C
# PC-3 = system: PC-3
# MDA-MB-231 = system: MDA-MB-231
# SF-268 = system: SF-268
# TK-10 = system: TK-10
# SF-539 = system: SF-539
# SK-OV-3 = system: SK-OV-3
# A498 = system: A498
# EKVX = system: EKVX
# SK-MEL-2 = system: SK-MEL-2
# NCI-H23 = system: NCI-H23
# KM12 = system: KM12
# CCRF-CEM = system: CCRF-CEM
# NCI/ADR-RES = system: NCI/ADR-RES
# HOP-62 = system: HOP-62
# HL-60 = system: HL-60
# U-251 = system: U-251
# CAKI-1 = system: CAKI-1
# HCT-116 = system: HCT-116
# ACHN = system: ACHN
# MOLT-4 = system: MOLT-4
# MDA-MB-435 = system: MDA-MB-435
# HT-29 = system: HT-29
# HCT-15 = system: HCT-15
# SK-MEL-5 = system: SK-MEL-5
# K562 = system: K562
# SK-MEL-28 = system: SK-MEL-28
# SW-620 = system: SW-620
# IGROV-1 = system: IGROV-1
# OVCAR-3 = system: OVCAR-3
# UACC-257 = system: UACC-257
# COLO 205 = system: COLO 205
# SNB-75 = system: SNB-75
# MCF7 = system: MCF7
# HCC 2998 = system: HCC 2998
# SR = system: SR
# MDA-N = system: MDA-N
smiles,measurement,setting,value
Cc1ccc(-n2cnc3c(N/N=C4\SCC(=O)N4c4ccccc4)ncnc32)cc1,GI50,OVCAR-5,12.2 µM (inactive)
same,GI50,UACC-62,4.37 µM (inactive)
same,GI50,NCI-H522,3.52 µM (inactive)
same,GI50,LOX IMVI,2.54 µM (inactive)
same,GI50,M14,3.66 µM (inactive)
same,GI50,A549,11.9 µM (inactive)
same,GI50,RPMI-8226,0.597 µM (active)
same,GI50,RXF 393,2.33 µM (inactive)
same,GI50,HOP-92,2.66 µM (inactive)
same,GI50,NCI-H460,2.9 µM (inactive)
same,GI50,T47D,3.97 µM (inactive)
same,GI50,UO-31,1.15 µM (inactive)
same,GI50,786-0,3.15 µM (inactive)
same,GI50,OVCAR-4,8.75 µM (inactive)
same,GI50,Hs-578T,3.85 µM (inactive)
same,GI50,SF-295,13.3 µM (inactive)
same,GI50,NCI-H226,4.02 µM (inactive)
same,GI50,SNB-19,11.7 µM (inactive)
same,GI50,DU-145,4.37 µM (inactive)
same,GI50,OVCAR-8,3.27 µM (inactive)
same,GI50,BT-549,3.85 µM (inactive)
same,GI50,Malme-3M,4.39 µM (inactive)
same,GI50,SN12C,2.97 µM (inactive)
same,GI50,PC-3,3.3 µM (inactive)
same,GI50,MDA-MB-231,3.3 µM (inactive)
same,GI50,SF-268,4.88 µM (inactive)
same,GI50,TK-10,3.63 µM (inactive)
same,GI50,SF-539,1.87 µM (inactive)
same,GI50,SK-OV-3,14.6 µM (inactive)
same,GI50,A498,14.2 µM (inactive)
same,GI50,EKVX,14.8 µM (inactive)
same,GI50,SK-MEL-2,2.31 µM (inactive)
same,GI50,NCI-H23,3.37 µM (inactive)
same,GI50,KM12,1.07 µM (active)
same,GI50,CCRF-CEM,0.437 µM (active)
same,GI50,NCI/ADR-RES,8.36 µM (inactive)
same,GI50,HOP-62,15.2 µM (inactive)
same,GI50,HL-60,1.41 µM (inactive)
same,GI50,U-251,4.72 µM (inactive)
same,GI50,CAKI-1,6.01 µM (inactive)
same,GI50,HCT-116,2.63 µM (inactive)
same,GI50,ACHN,5.78 µM (inactive)
same,GI50,MOLT-4,1.82 µM (inactive)
same,GI50,MDA-MB-435,2.02 µM (inactive)
same,GI50,HT-29,3.44 µM (inactive)
same,GI50,HCT-15,2.3 µM
same,GI50,SK-MEL-5,3.9 µM (inactive)
same,GI50,K562,1.29 µM (inactive)
same,GI50,SK-MEL-28,2.95 µM (inactive)
same,GI50,SW-620,4.01 µM (inactive)
same,GI50,IGROV-1,4 µM (inactive)
same,GI50,OVCAR-3,3.13 µM (inactive)
same,GI50,UACC-257,3.87 µM (inactive)
same,GI50,COLO 205,4.98 µM (inactive)
COc1cc(COC(=O)N2CSCC2C(=O)O)c([N+](=O)[O-])cc1OC (stereo unspecified),GI50,OVCAR-5,> 100 µM (inactive)
same,GI50,UACC-62,> 100 µM (inactive)
same,GI50,SNB-75,> 100 µM (inactive)
same,GI50,MCF7,> 100 µM (inactive)
same,GI50,M14,> 100 µM (inactive)
same,GI50,HCC 2998,> 100 µM (inactive)
same,GI50,A549,> 100 µM (inactive)
same,GI50,RPMI-8226,> 100 µM (inactive)
same,GI50,HOP-92,> 100 µM (inactive)
same,GI50,NCI-H460,> 100 µM (inactive)
same,GI50,T47D,> 100 µM (inactive)
same,GI50,UO-31,> 100 µM (inactive)
same,GI50,786-0,> 100 µM (inactive)
same,GI50,Hs-578T,> 100 µM (inactive)
same,GI50,SR,> 100 µM (inactive)
same,GI50,SF-295,> 100 µM (inactive)
same,GI50,NCI-H226,> 100 µM (inactive)
same,GI50,SNB-19,> 100 µM (inactive)
same,GI50,DU-145,> 100 µM (inactive)
same,GI50,OVCAR-8,> 100 µM (inactive)
same,GI50,BT-549,> 100 µM (inactive)
same,GI50,Malme-3M,> 100 µM (inactive)
same,GI50,SN12C,> 100 µM (inactive)
same,GI50,PC-3,> 100 µM (inactive)
same,GI50,SF-268,> 100 µM (inactive)
same,GI50,SF-539,> 100 µM (inactive)
same,GI50,SK-OV-3,> 100 µM (inactive)
same,GI50,EKVX,> 100 µM (inactive)
same,GI50,NCI-H23,> 100 µM (inactive)
same,GI50,KM12,> 100 µM (inactive)
same,GI50,CCRF-CEM,> 100 µM (inactive)
same,GI50,NCI/ADR-RES,> 100 µM (inactive)
same,GI50,HOP-62,> 100 µM (inactive)
same,GI50,HL-60,> 100 µM (inactive)
same,GI50,U-251,> 100 µM (inactive)
same,GI50,HCT-116,> 100 µM (inactive)
same,GI50,ACHN,> 100 µM (inactive)
same,GI50,MOLT-4,> 100 µM (inactive)
same,GI50,MDA-MB-435,> 100 µM (inactive)
same,GI50,HT-29,> 100 µM (inactive)
same,GI50,HCT-15,> 100 µM
same,GI50,SK-MEL-5,> 100 µM (inactive)
same,GI50,K562,> 100 µM (inactive)
same,GI50,SW-620,> 100 µM (inactive)
same,GI50,IGROV-1,> 100 µM (inactive)
same,GI50,OVCAR-3,> 100 µM (inactive)
same,GI50,UACC-257,> 100 µM (inactive)
same,GI50,MDA-N,> 100 µM (inactive)
O=c1[nH]c(Nc2nc3ccccc3[nH]2)nc2c1CCC2,GI50,OVCAR-5,> 100 µM (inactive)
same,GI50,UACC-62,> 100 µM (inactive)
same,GI50,NCI-H522,> 100 µM (inactive)
same,GI50,SNB-75,30 µM (inactive)
same,GI50,LOX IMVI,> 100 µM (inactive)
same,GI50,MCF7,> 100 µM (inactive)
same,GI50,M14,> 100 µM (inactive)
same,GI50,HCC 2998,> 100 µM (inactive)
same,GI50,A549,> 100 µM (inactive)
same,GI50,RXF 393,96.4 µM (inactive)
same,GI50,HOP-92,30.8 µM (inactive)
same,GI50,NCI-H460,> 100 µM (inactive)
same,GI50,UO-31,> 100 µM (inactive)
same,GI50,786-0,44.7 µM (inactive)
same,GI50,OVCAR-4,90.2 µM (inactive)
same,GI50,Hs-578T,22.6 µM (inactive)
same,GI50,SR,28 µM (inactive)
same,GI50,SF-295,76.9 µM (inactive)
same,GI50,NCI-H226,63.1 µM (inactive)
same,GI50,SNB-19,> 100 µM (inactive)
same,GI50,DU-145,> 100 µM (inactive)
same,GI50,OVCAR-8,42.6 µM (inactive)
same,GI50,BT-549,35.5 µM (inactive)
same,GI50,Malme-3M,> 100 µM (inactive)
same,GI50,SN12C,> 100 µM (inactive)
same,GI50,PC-3,> 100 µM (inactive)
same,GI50,MDA-MB-231,14.8 µM (inactive)
same,GI50,SF-268,43.6 µM (inactive)
same,GI50,TK-10,> 100 µM (inactive)
same,GI50,SF-539,42.7 µM (inactive)
same,GI50,SK-OV-3,41.8 µM (inactive)
same,GI50,A498,> 100 µM (inactive)
same,GI50,SK-MEL-2,> 100 µM (inactive)
same,GI50,NCI-H23,74.3 µM (inactive)
same,GI50,CCRF-CEM,> 100 µM (inactive)
same,GI50,NCI/ADR-RES,> 100 µM (inactive)
same,GI50,HOP-62,49.9 µM (inactive)
same,GI50,HL-60,> 100 µM (inactive)
same,GI50,U-251,64 µM (inactive)
same,GI50,CAKI-1,> 100 µM (inactive)
same,GI50,HCT-116,> 100 µM (inactive)
same,GI50,ACHN,> 100 µM (inactive)
same,GI50,MDA-MB-435,> 100 µM (inactive)
same,GI50,HT-29,> 100 µM (inactive)
same,GI50,HCT-15,> 100 µM
same,GI50,SK-MEL-5,> 100 µM (inactive)
same,GI50,K562,> 100 µM (inactive)
same,GI50,SK-MEL-28,82 µM (inactive)
same,GI50,SW-620,> 100 µM (inactive)
same,GI50,IGROV-1,> 100 µM (inactive)
same,GI50,OVCAR-3,> 100 µM (inactive)
same,GI50,UACC-257,> 100 µM (inactive)
same,GI50,MDA-N,> 100 µM (inactive)
same,GI50,COLO 205,> 100 µM (inactive)

# Reference: ChEMBL document CHEMBL1201862, “PubChem BioAssay data set” (2004)
